Test results from patent US20260226086A1, “COMPOUNDS AND COMPOSITIONS AS STAT3 DEGRADERS AND USES THEREOF” (REGENTS OF THE UNIVERSITY OF MICHIGAN, priority 2023, published 2026).
Like-named read-outs stand apart in the source and are kept apart here.

Legend:
Assay type in all cases: cell-based
[1] = system: SUP-M2 cells; experiment: CellTiter-Glo 2.0 cell viability assay, SUP-M2; conditions: SUP-M2, 96 h, 4 days
In short: (§1)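 1000 cells per well exposed to serially diluted compounds for 4 days at 37 °C, 5% CO2. Viability measured by CellTiter-Glo 2.0 luminescence versus untreated cells; IC50 from four-parameter nonlinear fit of triplicate means.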

[2] = system: SU-DHL-1 cells; experiment: CellTiter-Glo 2.0 cell viability assay, SU-DHL-1; conditions: Homo sapiens, 96 h, 4 days
In short: as §1

[3] = biological target: T1, STAT3 (Homo sapiens, UniProt P40763); experiment: HiBiT assay, STAT3 degradation in STAT3-HiBiT KI HeLa cells; conditions: for DC50: read-out: STAT3 Degradation (HeLa 24 h HiBit) DC50
T1 construct: This cell line is a clone created by using CRISPR-Cas9 to fuse HiBiT to the 3′ end of STAT3 in HeLa cells; host or cells: STAT3-HiBiT KI HeLa cell line (CRISPR-Cas9 knock-in clone)
In short: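 HeLa cells with CRISPR knock-in of HiBiT at the STAT3 C-terminus, 20000 cells/well, treated with serial compound dilutions for 24 h at 37 °C, 5% CO2. Remaining STAT3 read by Nano-Glo HiBiT lytic luminescence versus untreated cells; IC50 from four-parameter nonlinear fit of triplicate means.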

T1 sequence (P40763 whole entry): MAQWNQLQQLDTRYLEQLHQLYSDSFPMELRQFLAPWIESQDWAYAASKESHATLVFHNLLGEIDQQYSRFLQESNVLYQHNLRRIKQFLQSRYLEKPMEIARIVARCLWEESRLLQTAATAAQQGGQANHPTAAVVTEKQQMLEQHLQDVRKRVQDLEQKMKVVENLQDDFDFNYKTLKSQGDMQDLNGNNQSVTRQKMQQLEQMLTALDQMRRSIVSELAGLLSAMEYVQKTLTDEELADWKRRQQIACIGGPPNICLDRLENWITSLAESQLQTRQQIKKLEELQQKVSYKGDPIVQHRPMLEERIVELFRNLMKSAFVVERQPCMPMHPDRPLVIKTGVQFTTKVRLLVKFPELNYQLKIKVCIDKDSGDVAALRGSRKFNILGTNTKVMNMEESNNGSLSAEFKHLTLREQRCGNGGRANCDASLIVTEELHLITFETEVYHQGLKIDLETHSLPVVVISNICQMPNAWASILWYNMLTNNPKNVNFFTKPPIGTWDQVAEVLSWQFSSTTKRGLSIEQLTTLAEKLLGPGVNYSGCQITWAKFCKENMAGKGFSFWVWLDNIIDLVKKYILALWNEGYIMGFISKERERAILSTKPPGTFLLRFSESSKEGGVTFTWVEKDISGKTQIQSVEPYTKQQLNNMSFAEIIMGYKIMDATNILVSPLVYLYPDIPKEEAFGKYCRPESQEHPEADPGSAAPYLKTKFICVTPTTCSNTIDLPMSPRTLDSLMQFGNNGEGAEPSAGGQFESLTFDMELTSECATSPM

SMILES | IC50 [1] [nM] | IC50 [2] [nM] | Dmax at 1 µM ([3]; 24 h) [%] | DC50 ([3]; 24 h) [nM] | DC50 [3] [nM]
CC(=O)N1CC[C@H]2CC[C@@H](C(=O)N[C@@H](CCC(N)=O)COc3cccc(CCCc4cn([C@H](C(=O)N5C[C@H](O)C[C@H]5C(=O)N[C@@H](C)c5ccc(-c6scnc6C)cc5)C5CCOCC5)nn4)c3Cl)N2C(=O)[C@@H](NC(=O)c2cc3cc(C(=O)P(=O)(O)O)ccc3[nH]2)C1 [Compound 23, (2-(((5S,8S,10aR)-3-acetyl-8-(((S)-5-amino-1-(2-chloro-3-(3-(1-((S)-2-((2S,4R)-4-hydroxy-2-(((S)-1-(4-(4-methylthiazol-5-yl)phenyl)ethyl)carbamoyl)pyrrolidin-1-yl)-2-oxo-1-(tetrahydro-2H-pyran-4-yl)ethyl)-1H-1,2,3-triazol-4-yl)propyl)phenoxy)-5-oxopentan-2-yl)carbamoyl)-6-oxodecahydropyrrolo[1,2-a][1,5]diazocin-5-yl)carbamoyl)-1H-indole-5-carbonyl)phosphonic acid] | < 10 | < 10 | > 80 | < 10 | –
CCS(=O)(=O)c1ccc(CNC(=O)[C@H](CCC(N)=O)NC(=O)[C@@H]2CC[C@@H]3CCN(C(=O)CCCCc4cn([C@@H](C(=O)N5C[C@H](O)C[C@H]5C(=O)N[C@H](C)c5ccc(-c6scnc6C)cc5)C5CCOCC5)nn4)C[C@H](NC(=O)c4cc5cc(C(=O)P(=O)(O)O)ccc5[nH]4)C(=O)N32)cc1 [Compound 24, (2-(((5S,8S,10aR)-8-(((S)-5-amino-1-((4-(ethylsulfonyl)benzyl)amino)-1,5-dioxopentan-2-yl)carbamoyl)-3-(5-(1-((R)-2-((2S,4R)-4-hydroxy-2-(((R)-1-(4-(4-methylthiazol-5-yl)phenyl)ethyl)carbamoyl)pyrrolidin-1-yl)-2-oxo-1-(tetrahydro-2H-pyran-4-yl)ethyl)-1H-1,2,3-triazol-4-yl)pentanoyl)-6-oxodecahydropyrrolo[1,2-a][1,5]diazocin-5-yl)carbamoyl)-1H-indole-5-carbonyl)phosphonic acid] | < 10 | < 10 | > 80 | – | < 10
CC(=O)N1CC[C@H]2CC[C@@H](C(=O)N[C@@H](CCC(N)=O)COc3cccc(CCCc4cn([C@H](C(=O)N5C[C@H](O)C[C@H]5C(=O)N[C@@H](C)c5ccc(-c6scnc6C)cc5)C5CCN(C6CCOCC6)CC5)nn4)c3Cl)N2C(=O)[C@@H](NC(=O)c2cc3cc(C(=O)P(=O)(O)O)ccc3[nH]2)C1 [Compound 25, (2-(((5S,8S,10aR)-3-acetyl-8-(((S)-5-amino-1-(2-chloro-3-(3-(1-((S)-2-((2S,4R)-4-hydroxy-2-(((S)-1-(4-(4-methylthiazol-5-yl)phenyl)ethyl)carbamoyl)pyrrolidin-1-yl)-2-oxo-1-(1-(tetrahydro-2H-pyran-4-yl)piperidin-4-yl)ethyl)-1H-1,2,3-triazol-4-yl)propyl)phenoxy)-5-oxopentan-2-yl)carbamoyl)-6-oxodecahydropyrrolo [1,2-a][1,5]diazocin-5-yl)carbamoyl)-1H-indole-5-carbonyl)phosphonic acid] | 10 to 100 | 10 to 100 | 60 to 80 | 100 to 1000 | –
COCCOCCOCCOCCC(=O)N1CC[C@H]2CC[C@@H](C(=O)N[C@@H](CCC(N)=O)COc3cccc(CCCc4cn([C@H](C(=O)N5C[C@H](O)C[C@H]5C(=O)N[C@@H](C)c5ccc(-c6scnc6C)cc5)C(C)(C)C)nn4)c3Cl)N2C(=O)[C@@H](NC(=O)c2cc3cc(C(=O)P(=O)(O)O)ccc3[nH]2)C1 [Compound 30, (2-(((5S,8S,10aR)-8-(((S)-5-amino-1-(2-chloro-3-(3-(1-((S)-1-((2S,4R)-4-hydroxy-2-(((S)-1-(4-(4-methylthiazol-5-yl)phenyl)ethyl)carbamoyl)pyrrolidin-1-yl)-3,3-dimethyl-1-oxobutan-2-yl)-1H-1,2,3-triazol-4-yl)propyl)phenoxy)-5-oxopentan-2-yl)carbamoyl)-6-oxo-3-(2,5,8,11-tetraoxatetradecan-14-oyl)decahydropyrrolo[1,2-a][1,5]diazocin-5-yl)carbamoyl)-1H-indole-5-carbonyl)phosphonic acid] | 10 to 100 | < 10 | > 80 | < 10 | –
COCCOCCOCCOCCN1CC[C@H]2CC[C@@H](C(=O)N[C@@H](CCC(N)=O)COc3cccc(CCCc4cn([C@H](C(=O)N5C[C@H](O)C[C@H]5C(=O)N[C@@H](C)c5ccc(-c6scnc6C)cc5)C(C)(C)C)nn4)c3Cl)N2C(=O)[C@@H](NC(=O)c2cc3cc(C(=O)P(=O)(O)O)ccc3[nH]2)C1 [Compound 31, (2-(((5S,8S,10aR)-8-(((S)-5-amino-1-(2-chloro-3-(3-(1-((S)-1-((2S,4R)-4-hydroxy-2-(((S)-1-(4-(4-methylthiazol-5-yl)phenyl)ethyl)carbamoyl)pyrrolidin-1-yl)-3,3-dimethyl-1-oxobutan-2-yl)-1H-1,2,3-triazol-4-yl)propyl)phenoxy)-5-oxopentan-2-yl)carbamoyl)-6-oxo-3-(2,5,8,11-tetraoxatridecan-13-yl)decahydropyrrolo[1,2-a][1,5]diazocin-5-yl)carbamoyl)-1H-indole-5-carbonyl)phosphonic acid] | 10 to 100 | 10 to 100 | > 80 | 10 to 100 | –
Cc1ncsc1-c1ccc([C@H](C)NC(=O)[C@@H]2C[C@@H](O)CN2C(=O)[C@@H](n2cc(CCCc3cccc(OC[C@H](CCC(N)=O)NC(=O)[C@@H]4CC[C@@H]5CCN(C(=O)C6CCN(C)CC6)C[C@H](NC(=O)c6cc7cc(C(=O)P(=O)(O)O)ccc7[nH]6)C(=O)N54)c3Cl)nn2)C(C)(C)C)cc1 [Compound 32, (2-(((5S,8S,10aR)-8-(((S)-5-amino-1-(2-chloro-3-(3-(1-((S)-1-((2S,4R)-4-hydroxy-2-(((S)-1-(4-(4-methylthiazol-5-yl)phenyl)ethyl)carbamoyl)pyrrolidin-1-yl)-3,3-dimethyl-1-oxobutan-2-yl)-1H-1,2,3-triazol-4-yl)propyl)phenoxy)-5-oxopentan-2-yl)carbamoyl)-3-(1-methylpiperidine-4-carbonyl)-6-oxodecahydropyrrolo[1,2-a][1,5]diazocin-5-yl)carbamoyl)-1H-indole-5-carbonyl)phosphonic acid] | 100 to 1000 | 10 to 100 | > 80 | 10 to 100 | –
Cc1ncsc1-c1ccc([C@H](C)NC(=O)[C@@H]2C[C@@H](O)CN2C(=O)[C@@H](n2cc(CCCc3cccc(OC[C@H](CCC(N)=O)NC(=O)[C@@H]4CC[C@@H]5CCN(C(=O)CCN6CCN(C)CC6)C[C@H](NC(=O)c6cc7cc(C(=O)P(=O)(O)O)ccc7[nH]6)C(=O)N54)c3Cl)nn2)C(C)(C)C)cc1 [Compound 33, (2-(((5S,8S,10aR)-8-(((S)-5-amino-1-(2-chloro-3-(3-(1-((S)-1-((2S,4R)-4-hydroxy-2-(((S)-1-(4-(4-methylthiazol-5-yl)phenyl)ethyl)carbamoyl)pyrrolidin-1-yl)-3,3-dimethyl-1-oxobutan-2-yl)-1H-1,2,3-triazol-4-yl)propyl)phenoxy)-5-oxopentan-2-yl)carbamoyl)-3-(3-(4-methylpiperazin-1-yl)propanoyl)-6-oxodecahydropyrrolo[1,2-a][1,5]diazocin-5-yl)carbamoyl)-1H-indole-5-carbonyl)phosphonic acid] | 100 to 1000 | 10 to 100 | > 80 | 10 to 100 | –
CC(=O)N1CC[C@H]2CC[C@@H](C(=O)N[C@@H](CCC(N)=O)COc3cccc(CCCCNC(=O)C[C@H](NC(=O)[C@@H]4C[C@@H](O)CN4C(=O)[C@H](C4CCCCC4)n4cc(C5CC5)nn4)c4ccc(-c5scnc5C)cc4)c3Cl)N2C(=O)[C@@H](NC(=O)c2cc3cc(C(=O)P(=O)(O)O)ccc3[nH]2)C1 [Compound 36, (2-(((5S,8S,10aR)-3-acetyl-8-(((S)-5-amino-1-(2-chloro-3-(4-((S)-3-((2S,4R)-1-((S)-2-cyclohexyl-2-(4-cyclopropyl-1H-1,2,3-triazol-1-yl)acetyl)-4-hydroxypyrrolidine-2-carboxamido)-3-(4-(4-methylthiazol-5-yl)phenyl)propanamido)butyl)phenoxy)-5-oxopentan-2-yl)carbamoyl)-6-oxodecahydropyrrolo[1,2-a][1,5]diazocin-5-yl)carbamoyl)-1H-indole-5-carbonyl)phosphonic acid] | < 10 | < 10 | > 80 | < 10 | –
CC(=O)N1CC[C@H]2CC[C@@H](C(=O)N[C@@H](CCC(N)=O)COc3cccc(CCCC(=O)N4CCC([C@@H](C(=O)N5C[C@H](O)C[C@H]5C(=O)N[C@@H](C)c5ccc(-c6scnc6C)cc5)n5cc(C6CC6)nn5)CC4)c3Cl)N2C(=O)[C@@H](NC(=O)c2cc3cc(C(=O)P(=O)(O)O)ccc3[nH]2)C1 [Compound 37, (2-(((5S,8S,10aR)-3-acetyl-8-(((S)-5-amino-1-(2-chloro-3-(4-(4-((S)-1-(4-cyclopropyl-1H-1,2,3-triazol-1-yl)-2-((2S,4R)-4-hydroxy-2-(((S)-1-(4-(4-methylthiazol-5-yl)phenyl)ethyl)carbamoyl)pyrrolidin-1-yl)-2-oxoethyl)piperidin-1-yl)-4-oxobutyl)phenoxy)-5-oxopentan-2-yl)carbamoyl)-6-oxodecahydropyrrolo[1,2-a][1,5]diazocin-5-yl)carbamoyl)-1H-indole-5-carbonyl)phosphonic acid] | 10 to 100 | > 1000 | 60 to 80 | 100 to 1000 | –
